Measurements as given in patent US11053204B2, “Pyrimidinyloxy benzene derivatives as herbicides” (FMC Corporation, priority 2015, dated 2021).

Assays:
Assay type in all cases: in vivo
[1] = test system: barnyardgrass (Echinochloa crus-galli); assay: Test A preemergence, visual injury rating; details: Echinochloa crus-galli, pre-emergence, 240 h, 0 to 100 scale (0 no effect, 100 complete control), read-out: Barnyardgrass plant response rating
Summary of the method: (§1)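 Compounds in non-phytotoxic solvent with surfactant applied as soil spray preemergence, or postemergence to plants 2-10 cm at one- to two-leaf stage, in loam/sand. After approximately 10 days in greenhouse, injury rated visually versus untreated controls, 0 (no effect) to 100 (complete control).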

kochia (Kochia scoparia) [2] = assay: Test A preemergence, visual injury rating; details: Bassia scoparia, pre-emergence, 240 h, 0 to 100 scale (0 no effect, 100 complete control), read-out: Kochia plant response rating
Summary of the method: as §1

[3] = test system: barnyardgrass (Echinochloa crus-galli); assay: Test C postemergence, plant response rating; details: Echinochloa crus-galli, post-emergence
Description: (§2) Seeds of plant species selected from blackgrass (Alopecurus myosuroides), ryegrass, Italian (Italian ryegrass, Lolium multiflorum), wheat (winter wheat, Triticum aestivum), galium (catchweed bedstraw, Galium aparine), corn (Zea mays), crabgrass, large (large crabgrass, Digitaria sanguinalis), foxtail, giant (giant foxtail, Setaria faberii), johnsongrass (Sorghum halepense), lambsquarters (Chenopodium album), morningglory (Ipomoea coccinea), nutsedge, yellow (yellow nutsedge, Cyperus esculentus), pigweed (Amaranthus retroflexus), ragweed (common ragweed, Ambrosia elatior), soybean (Glycine max), barnyardgrass (Echinochloa crus-galli), oilseed rape (Brassica napus), pigweed, palmer (palmer pigweed, Amaranthus palmeri), waterhemp (common waterhemp, Amaranthus rudis), velvetleaf (Abutilon theophrasti), kochia (Kochia scoparia), surinam grass (Brachiaria decumbens), nightshade (eastern black nightshade, Solanum ptycanthum), wild poinsettia (Euphorbia heterophylla), windgrass (Apera spica-venti), and oat, wild (wild oat Avena fatua), were planted into a blend of loam soil and sand or a silt loam soil and treated preemergence with test chemicals formulated in a non-phytotoxic solvent mixture which included a surfactant.
(§3) At the same time, plants selected from these crop and weed species and also chickweed (common chickweed, Stellaria media), buckwheat, wild (wild buckwheat, Polygonum convolvulus), wild mustard (Sinapis arvensis), field poppy (Papaver rhoeas), field violet (Viola arvensis), geranium, cutleaf (cutleaf geranium, Geranium dissectum), Canada thistle (Cirsium arvense), and speedwell (bird's-eye speedwell, Veronica persica), were planted in pots containing Sunshine Redi-Earth® planting medium comprising spaghnum peat moss, vermiculite, starter nutrients and dolomitic limestone and treated with postemergence applications of test chemicals formulated in the same manner. Plants ranged in height from 2 to 18 cm (1- to 4-leaf stage) for postemergence treatments. Treated plants and controls were maintained in a greenhouse for 13 to 15 d, after which time all species were compared to controls and visually evaluated. Plant response ratings, summarized in Table C, are based on a scale of 0 to 100 where 0 is no effect and 100 is complete control. A dash (-) response means no test result.

[4] = test system: blackgrass (Alopecurus myosuroides); assay: Test C postemergence, plant response rating; details: Alopecurus myosuroides, post-emergence
Description: as §2, §3

[5] = test system: chickweed (common chickweed, Stellaria media); assay: Test C postemergence, plant response rating; details: Stellaria media, post-emergence
Description: as §2, §3

corn (Zea mays) = assay: Test C postemergence, plant response rating; details: Zea mays, post-emergence
Description: as §2, §3

[6] = test system: crabgrass, large (large crabgrass, Digitaria sanguinalis); assay: Test C postemergence, plant response rating; details: Digitaria sanguinalis, post-emergence
Description: as §2, §3

[7] = test system: foxtail, giant (giant foxtail, Setaria faberii); assay: Test C postemergence, plant response rating; details: Setaria faberi, post-emergence
Description: as §2, §3

kochia (Kochia scoparia) [8] = assay: Test C postemergence, plant response rating; details: Bassia scoparia, post-emergence
Description: as §2, §3

[9] = test system: lambsquarters (Chenopodium album); assay: Test C postemergence, plant response rating; details: Chenopodium album, post-emergence
Description: as §2, §3

[10] = test system: morningglory (Ipomoea coccinea); assay: Test C postemergence, plant response rating; details: Ipomoea, post-emergence
Description: as §2, §3

[11] = test system: nutsedge, yellow (yellow nutsedge, Cyperus esculentus); assay: Test C postemergence, plant response rating; details: Cyperus, post-emergence
Description: as §2, §3

[12] = test system: oat, wild (wild oat Avena fatua); assay: Test C postemergence, plant response rating; details: Avena fatua, post-emergence
Description: as §2, §3

[13] = test system: oilseed rape (Brassica napus); assay: Test C postemergence, plant response rating; details: Brassica napus, post-emergence
Description: as §2, §3

[14] = test system: ryegrass, Italian (Italian ryegrass, Lolium multiflorum); assay: Test C postemergence, plant response rating; details: Lolium multiflorum, post-emergence
Description: as §2, §3

soybean (Glycine max) = assay: Test C postemergence, plant response rating; details: Glycine max, post-emergence
Description: as §2, §3

[15] = test system: wheat (winter wheat, Triticum aestivum); assay: Test C postemergence, plant response rating; details: Triticum aestivum, post-emergence
Description: as §2, §3

CCCOC(=O)c1c(Br)cccc1Oc1ncc(Cl)cn1 [Compound 13, propyl 2-bromo-6-[(5-chloro-2-pyrimidinyl)oxy]benzoate]
90%: pest or weed control at 125 g/ha (kochia (Kochia scoparia) [2]; 125 g ai/ha)
50%: pest or weed control at 16 g/ha ([9]; 16 g ai/ha, scale 0 to 100)
10%: pest or weed control at 16 g/ha ([3]; 16 g ai/ha, scale 0 to 100) | pest or weed control at 31 g/ha ([3]; 31 g ai/ha, scale 0 to 100) | Corn plant response rating (crop injury, 0 = no effect, 100 = complete kill) at 16 g/ha (corn (Zea mays); 16 g ai/ha, scale 0 to 100) | pest or weed control at 16 g/ha ([7]; 16 g ai/ha, scale 0 to 100)
5%: pest or weed control at 4 g/ha ([3]; 4 g ai/ha, scale of 0 to 100) | pest or weed control at 8 g/ha ([3]; 8 g ai/ha, scale of 0 to 100) | pest or weed control at 31 g/ha ([4]; 31 g ai/ha, scale 0 to 100) | pest or weed control at 4 g/ha ([5]; 4 g ai/ha, scale of 0 to 100) | pest or weed control at 8 g/ha ([5]; 8 g ai/ha, scale of 0 to 100) | Corn plant response rating (crop injury, 0 = no effect, 100 = complete kill) at 4 g/ha (corn (Zea mays); 4 g ai/ha, scale of 0 to 100) | Corn plant response rating (crop injury, 0 = no effect, 100 = complete kill) at 8 g/ha (corn (Zea mays); 8 g ai/ha, scale of 0 to 100) | Corn plant response rating (crop injury, 0 = no effect, 100 = complete kill) at 31 g/ha (corn (Zea mays); 31 g ai/ha, scale 0 to 100) | pest or weed control at 4 g/ha ([6]; 4 g ai/ha, scale of 0 to 100) | pest or weed control at 8 g/ha ([6]; 8 g ai/ha, scale of 0 to 100) | pest or weed control at 16 g/ha ([6]; 16 g ai/ha, scale 0 to 100) | pest or weed control at 4 g/ha ([7]; 4 g ai/ha, scale of 0 to 100) | pest or weed control at 8 g/ha ([7]; 8 g ai/ha, scale of 0 to 100) | pest or weed control at 8 g/ha (kochia (Kochia scoparia) [8]; 8 g ai/ha, scale of 0 to 100) | pest or weed control at 4 g/ha ([10]; 4 g ai/ha, scale of 0 to 100) | pest or weed control at 8 g/ha ([10]; 8 g ai/ha, scale of 0 to 100) | pest or weed control at 16 g/ha ([11]; 16 g ai/ha, scale 0 to 100) | pest or weed control at 31 g/ha ([11]; 31 g ai/ha, scale 0 to 100) | pest or weed control at 31 g/ha ([12]; 31 g ai/ha, scale 0 to 100)
55%: pest or weed control at 31 g/ha ([9]; 31 g ai/ha, scale 0 to 100)
30%: pest or weed control at 16 g/ha (kochia (Kochia scoparia) [8]; 16 g ai/ha, scale 0 to 100) | pest or weed control at 31 g/ha (kochia (Kochia scoparia) [8]; 31 g ai/ha, scale 0 to 100) | pest or weed control at 4 g/ha ([9]; 4 g ai/ha, scale of 0 to 100) | pest or weed control at 31 g/ha ([10]; 31 g ai/ha, scale 0 to 100) | plant injury at 16 g/ha (soybean (Glycine max); 16 g ai/ha, scale 0 to 100)
15%: pest or weed control at 31 g/ha ([6]; 31 g ai/ha, scale 0 to 100) | plant injury at 4 g/ha (soybean (Glycine max); 4 g ai/ha, scale of 0 to 100)
60%: pest or weed control at 8 g/ha ([9]; 8 g ai/ha, scale of 0 to 100)
0%: pest or weed control at 4 g/ha ([4]; 4 g ai/ha, scale of 0 to 100) | pest or weed control at 8 g/ha ([4]; 8 g ai/ha, scale of 0 to 100) | pest or weed control at 16 g/ha ([4]; 16 g ai/ha, scale 0 to 100) | pest or weed control at 4 g/ha (kochia (Kochia scoparia) [8]; 4 g ai/ha, scale of 0 to 100) | pest or weed control at 4 g/ha ([11]; 4 g ai/ha, scale of 0 to 100) | pest or weed control at 8 g/ha ([11]; 8 g ai/ha, scale of 0 to 100) | pest or weed control at 4 g/ha ([12]; 4 g ai/ha, scale of 0 to 100) | pest or weed control at 8 g/ha ([12]; 8 g ai/ha, scale of 0 to 100) | pest or weed control at 16 g/ha ([12]; 16 g ai/ha, scale 0 to 100) | plant injury at 4 g/ha ([13]; 4 g ai/ha, scale of 0 to 100) | plant injury at 8 g/ha ([13]; 8 g ai/ha, scale of 0 to 100) | plant injury at 16 g/ha ([13]; 16 g ai/ha, scale 0 to 100) | pest or weed control at 4 g/ha ([14]; 4 g ai/ha, scale of 0 to 100) | pest or weed control at 8 g/ha ([14]; 8 g ai/ha, scale of 0 to 100) | pest or weed control at 16 g/ha ([14]; 16 g ai/ha, scale 0 to 100) | pest or weed control at 31 g/ha ([14]; 31 g ai/ha, scale 0 to 100) | plant injury at 4 g/ha ([15]; 4 g ai/ha, scale of 0 to 100) | plant injury at 8 g/ha ([15]; 8 g ai/ha, scale of 0 to 100) | plant injury at 16 g/ha ([15]; 16 g ai/ha, scale 0 to 100) | plant injury at 31 g/ha ([15]; 31 g ai/ha, scale 0 to 100)
100%: pest or weed control at 125 g/ha ([1]; 125 g ai/ha) | pest or weed control at 500 g/ha ([1]; 500 g ai/ha) | pest or weed control at 500 g/ha (kochia (Kochia scoparia) [2]; 500 g ai/ha)
25%: pest or weed control at 31 g/ha ([7]; 31 g ai/ha, scale 0 to 100)
40%: pest or weed control at 16 g/ha ([5]; 16 g ai/ha, scale 0 to 100)
35%: plant injury at 31 g/ha ([13]; 31 g ai/ha, scale 0 to 100) | plant injury at 31 g/ha (soybean (Glycine max); 31 g ai/ha, scale 0 to 100)
70%: pest or weed control at 31 g/ha ([5]; 31 g ai/ha, scale 0 to 100)
20%: pest or weed control at 16 g/ha ([10]; 16 g ai/ha, scale 0 to 100) | plant injury at 8 g/ha (soybean (Glycine max); 8 g ai/ha, scale of 0 to 100)
